What all share (assay): biochemical
Holding throughout (parameters): AlphaScreen histone demethylase activity assay
For orientation: In Alpha technology, singlet oxygen from a donor bead excites a nearby acceptor bead.

The target of assay [1] is JARID1B (KDM5B) (Homo sapiens, UniProt Q9UGL1). To be noted: read-out: KDM5B pIC50 (converted).
Assay [2] addresses T1, JMJD2C (KDM4C) (Homo sapiens, UniProt Q9H3R0).
T1 sequence (Q9H3R0 1-1056): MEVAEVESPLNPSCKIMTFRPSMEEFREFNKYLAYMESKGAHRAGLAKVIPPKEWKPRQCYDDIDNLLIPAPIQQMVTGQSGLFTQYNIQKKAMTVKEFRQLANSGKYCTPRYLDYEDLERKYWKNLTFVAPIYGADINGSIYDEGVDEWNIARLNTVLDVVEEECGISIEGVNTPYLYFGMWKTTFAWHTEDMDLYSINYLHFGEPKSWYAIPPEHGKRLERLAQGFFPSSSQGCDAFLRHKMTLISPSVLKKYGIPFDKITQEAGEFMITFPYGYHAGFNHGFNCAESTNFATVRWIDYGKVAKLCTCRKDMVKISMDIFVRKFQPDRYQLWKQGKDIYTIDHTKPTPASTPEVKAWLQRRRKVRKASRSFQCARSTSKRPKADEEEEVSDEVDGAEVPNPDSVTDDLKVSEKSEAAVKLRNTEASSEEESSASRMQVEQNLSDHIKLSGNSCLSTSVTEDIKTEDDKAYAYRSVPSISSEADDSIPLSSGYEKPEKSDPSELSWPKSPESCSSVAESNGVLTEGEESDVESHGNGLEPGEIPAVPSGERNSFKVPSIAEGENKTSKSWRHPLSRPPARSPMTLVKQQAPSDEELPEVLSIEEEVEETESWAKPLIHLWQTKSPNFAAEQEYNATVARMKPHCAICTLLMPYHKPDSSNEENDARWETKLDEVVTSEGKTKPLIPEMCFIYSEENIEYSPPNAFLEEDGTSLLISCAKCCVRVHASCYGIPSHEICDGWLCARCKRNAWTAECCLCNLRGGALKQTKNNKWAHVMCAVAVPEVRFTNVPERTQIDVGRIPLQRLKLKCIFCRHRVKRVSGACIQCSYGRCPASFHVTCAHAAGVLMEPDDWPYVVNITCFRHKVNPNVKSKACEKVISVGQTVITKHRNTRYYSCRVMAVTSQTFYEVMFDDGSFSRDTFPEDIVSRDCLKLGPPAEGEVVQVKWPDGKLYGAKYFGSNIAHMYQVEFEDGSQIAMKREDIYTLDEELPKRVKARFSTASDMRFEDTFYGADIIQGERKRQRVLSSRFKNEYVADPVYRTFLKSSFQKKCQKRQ

Assay [3] has as its target JMJD3A (KDM6B) (Homo sapiens, UniProt O15054). To be noted: read-out: KDM6B pIC50 (converted).
In assay [4] the target is T2, JMJD1A (KDM3A) (Homo sapiens, UniProt Q9Y4C1).
T2 sequence (Q9Y4C1 1-1321): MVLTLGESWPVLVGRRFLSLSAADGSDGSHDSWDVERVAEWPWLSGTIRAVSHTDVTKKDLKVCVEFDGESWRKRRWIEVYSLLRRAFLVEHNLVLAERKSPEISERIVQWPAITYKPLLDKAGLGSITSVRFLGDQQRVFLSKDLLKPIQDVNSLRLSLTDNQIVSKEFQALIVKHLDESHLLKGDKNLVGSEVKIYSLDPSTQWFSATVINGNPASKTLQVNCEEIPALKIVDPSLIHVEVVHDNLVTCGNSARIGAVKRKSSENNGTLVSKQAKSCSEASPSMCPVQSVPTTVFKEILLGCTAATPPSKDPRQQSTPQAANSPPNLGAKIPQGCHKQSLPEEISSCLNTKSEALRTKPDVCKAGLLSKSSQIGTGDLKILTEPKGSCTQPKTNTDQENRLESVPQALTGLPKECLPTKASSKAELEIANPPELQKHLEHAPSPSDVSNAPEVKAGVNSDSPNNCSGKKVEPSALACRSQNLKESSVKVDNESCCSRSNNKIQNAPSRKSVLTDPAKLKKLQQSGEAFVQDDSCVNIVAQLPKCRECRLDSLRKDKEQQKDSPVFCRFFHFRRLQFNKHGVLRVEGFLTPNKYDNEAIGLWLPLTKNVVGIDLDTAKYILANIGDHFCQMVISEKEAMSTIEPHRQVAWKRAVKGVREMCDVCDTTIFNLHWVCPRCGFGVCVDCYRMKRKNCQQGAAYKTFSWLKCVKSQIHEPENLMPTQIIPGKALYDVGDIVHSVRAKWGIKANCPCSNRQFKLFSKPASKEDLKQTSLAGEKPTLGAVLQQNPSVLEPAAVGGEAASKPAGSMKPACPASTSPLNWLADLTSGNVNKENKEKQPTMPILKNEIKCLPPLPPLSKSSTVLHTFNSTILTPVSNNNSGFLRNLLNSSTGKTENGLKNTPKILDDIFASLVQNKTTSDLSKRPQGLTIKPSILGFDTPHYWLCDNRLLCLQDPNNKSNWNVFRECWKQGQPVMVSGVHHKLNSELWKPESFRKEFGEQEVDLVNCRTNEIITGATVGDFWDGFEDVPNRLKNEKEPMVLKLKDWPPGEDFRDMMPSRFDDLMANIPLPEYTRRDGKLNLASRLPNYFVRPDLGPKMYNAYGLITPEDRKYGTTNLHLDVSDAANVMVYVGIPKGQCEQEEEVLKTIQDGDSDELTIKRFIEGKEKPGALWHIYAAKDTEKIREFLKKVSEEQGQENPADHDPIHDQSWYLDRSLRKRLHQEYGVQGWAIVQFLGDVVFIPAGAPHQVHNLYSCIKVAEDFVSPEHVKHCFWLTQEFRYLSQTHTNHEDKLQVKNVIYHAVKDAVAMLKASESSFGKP

Where only a bound is given, the exact number is not on record here.

JMJD3A (KDM6B), sequence (O15054 whole entry): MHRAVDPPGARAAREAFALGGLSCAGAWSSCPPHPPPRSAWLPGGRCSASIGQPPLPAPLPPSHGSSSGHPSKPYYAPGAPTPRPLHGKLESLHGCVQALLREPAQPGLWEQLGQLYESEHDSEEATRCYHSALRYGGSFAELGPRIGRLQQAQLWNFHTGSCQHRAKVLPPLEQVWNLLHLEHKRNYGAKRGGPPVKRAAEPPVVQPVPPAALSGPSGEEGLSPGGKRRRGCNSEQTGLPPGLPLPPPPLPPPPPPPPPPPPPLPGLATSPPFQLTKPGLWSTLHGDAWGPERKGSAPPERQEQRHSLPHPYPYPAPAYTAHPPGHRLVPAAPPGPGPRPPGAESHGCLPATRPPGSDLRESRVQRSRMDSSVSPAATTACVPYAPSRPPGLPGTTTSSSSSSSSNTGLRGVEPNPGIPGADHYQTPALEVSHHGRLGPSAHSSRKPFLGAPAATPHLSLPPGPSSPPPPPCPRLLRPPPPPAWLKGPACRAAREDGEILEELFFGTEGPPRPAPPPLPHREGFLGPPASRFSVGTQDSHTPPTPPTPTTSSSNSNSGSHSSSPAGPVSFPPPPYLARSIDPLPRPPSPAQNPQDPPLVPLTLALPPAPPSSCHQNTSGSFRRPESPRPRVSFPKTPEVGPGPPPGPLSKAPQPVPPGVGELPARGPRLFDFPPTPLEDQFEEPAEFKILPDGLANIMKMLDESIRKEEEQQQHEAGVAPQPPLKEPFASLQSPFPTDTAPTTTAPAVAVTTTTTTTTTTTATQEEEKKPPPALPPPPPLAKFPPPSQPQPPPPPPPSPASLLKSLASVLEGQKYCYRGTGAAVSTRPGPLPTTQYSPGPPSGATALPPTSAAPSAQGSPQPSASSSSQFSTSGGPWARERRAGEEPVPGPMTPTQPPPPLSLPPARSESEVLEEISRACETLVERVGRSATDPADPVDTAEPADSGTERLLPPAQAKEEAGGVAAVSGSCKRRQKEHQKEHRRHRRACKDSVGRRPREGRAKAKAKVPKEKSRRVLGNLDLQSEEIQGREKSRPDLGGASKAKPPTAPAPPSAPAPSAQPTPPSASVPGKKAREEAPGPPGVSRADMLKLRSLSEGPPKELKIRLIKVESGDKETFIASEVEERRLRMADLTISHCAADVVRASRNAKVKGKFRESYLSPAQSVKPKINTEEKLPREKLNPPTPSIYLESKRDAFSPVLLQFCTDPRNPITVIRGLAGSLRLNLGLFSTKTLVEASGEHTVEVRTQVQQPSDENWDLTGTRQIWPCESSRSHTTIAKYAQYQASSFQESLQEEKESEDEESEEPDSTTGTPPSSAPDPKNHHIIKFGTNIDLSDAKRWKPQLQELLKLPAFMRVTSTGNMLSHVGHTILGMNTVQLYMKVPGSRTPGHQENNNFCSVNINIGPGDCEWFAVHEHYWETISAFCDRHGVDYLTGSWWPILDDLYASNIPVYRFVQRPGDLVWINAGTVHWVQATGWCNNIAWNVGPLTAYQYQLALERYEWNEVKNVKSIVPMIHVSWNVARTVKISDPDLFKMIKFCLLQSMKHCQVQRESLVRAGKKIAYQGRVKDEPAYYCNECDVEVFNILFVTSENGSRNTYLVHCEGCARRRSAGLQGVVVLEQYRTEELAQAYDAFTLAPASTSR
JARID1B (KDM5B), sequence (Q9UGL1 whole entry): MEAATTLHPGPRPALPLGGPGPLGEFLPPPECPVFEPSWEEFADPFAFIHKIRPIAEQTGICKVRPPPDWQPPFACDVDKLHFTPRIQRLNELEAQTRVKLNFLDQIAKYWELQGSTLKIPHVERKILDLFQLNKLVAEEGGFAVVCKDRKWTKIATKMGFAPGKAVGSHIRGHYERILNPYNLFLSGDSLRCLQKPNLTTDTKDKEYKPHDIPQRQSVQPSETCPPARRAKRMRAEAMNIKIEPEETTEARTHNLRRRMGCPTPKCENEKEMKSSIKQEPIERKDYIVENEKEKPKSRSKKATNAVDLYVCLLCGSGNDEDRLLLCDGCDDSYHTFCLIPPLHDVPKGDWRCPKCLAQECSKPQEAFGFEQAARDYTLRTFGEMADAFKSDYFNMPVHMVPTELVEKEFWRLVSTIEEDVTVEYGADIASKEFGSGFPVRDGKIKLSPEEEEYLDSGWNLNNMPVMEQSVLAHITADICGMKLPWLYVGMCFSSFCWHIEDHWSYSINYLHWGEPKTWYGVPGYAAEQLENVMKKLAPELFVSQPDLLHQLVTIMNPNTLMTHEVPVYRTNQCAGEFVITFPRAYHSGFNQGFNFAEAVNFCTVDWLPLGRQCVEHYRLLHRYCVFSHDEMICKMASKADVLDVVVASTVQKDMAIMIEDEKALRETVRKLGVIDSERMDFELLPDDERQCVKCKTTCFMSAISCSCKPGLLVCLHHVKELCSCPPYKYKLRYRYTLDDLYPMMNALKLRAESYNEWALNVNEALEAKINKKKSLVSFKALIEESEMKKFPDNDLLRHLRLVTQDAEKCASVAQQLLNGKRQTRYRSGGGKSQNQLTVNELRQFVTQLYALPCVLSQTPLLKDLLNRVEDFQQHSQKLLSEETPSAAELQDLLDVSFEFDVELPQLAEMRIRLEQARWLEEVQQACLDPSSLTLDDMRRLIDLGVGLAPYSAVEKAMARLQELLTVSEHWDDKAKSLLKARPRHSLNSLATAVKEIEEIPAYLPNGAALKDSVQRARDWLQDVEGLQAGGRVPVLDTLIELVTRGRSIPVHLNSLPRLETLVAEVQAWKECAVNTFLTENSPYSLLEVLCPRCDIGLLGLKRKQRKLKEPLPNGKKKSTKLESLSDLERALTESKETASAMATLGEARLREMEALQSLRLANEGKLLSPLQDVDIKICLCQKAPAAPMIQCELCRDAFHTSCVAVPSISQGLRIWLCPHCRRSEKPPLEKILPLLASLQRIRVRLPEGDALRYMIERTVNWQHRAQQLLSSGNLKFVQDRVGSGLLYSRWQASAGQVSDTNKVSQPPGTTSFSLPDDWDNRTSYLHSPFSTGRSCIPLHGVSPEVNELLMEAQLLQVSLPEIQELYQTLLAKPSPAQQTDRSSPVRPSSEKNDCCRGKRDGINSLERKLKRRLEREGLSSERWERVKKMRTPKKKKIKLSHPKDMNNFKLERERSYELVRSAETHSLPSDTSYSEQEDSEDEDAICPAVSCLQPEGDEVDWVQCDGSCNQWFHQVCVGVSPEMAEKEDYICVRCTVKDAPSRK

On to `CC(=O)N1c2ccccc2[C@@](C#N)(c2ccccc2)[C@@H]1c1cncc(CCCCCCCN2CCCC2)c1` [(S,S)-6], for which the IC50 in assay [1] is 13.1 µM; in assay [2] (read-out: KDM4C pIC50 (converted)), greater than 100 µM; in assay [3], 19.8 µM; in assay [4] (read-out: KDM3A pIC50 (converted)) it was greater than 100 µM. Also, in assay [2] (read-out: KDM4C % Inhib. (10 uM)), the inhibition at 10 µM came out at 30.5%. This compound also had an inhibition at 100 µM in assay [4] of 35.4%.

These data come from PMC5725665, “Discovery of a Highly Selective Cell‐Active Inhibitor of the Histone Lysine Demethylases KDM2/7” (Angewandte Chemie (International Ed. in English), 2017).
